These are literature values, as cited in patent US12691120B2, “Liquid oral formulations for PDE V inhibitors” (LIQMEDS WORLDWIDE LIMITED, priority 2017, dated 2026).

For series [1] the following is noted: tablets or oral suspension.
For series [2] the following is noted: measured using rats.
The conditions of series [3]: oral administration.
The mark [4] stands for this setting: EMEA CHMP Assessment Report for Vizarsin.
The mark [5] stands for this setting: Jordanian Pharmaceutical Manufacturing Co.

Structures can show the parent of a compound that is named as a salt. Where two headings read alike, the source gives them in different places.

For `CCCc1nn(C)c2c(=O)[nH]c(-c3cc(S(=O)(=O)N4CCN(C)CC4)ccc3OCC)nc12` [Sildenafil citrate], the absolute bioavailability result in series [1] is on record as “about 41%”. Besides, under setting [4], the solubility in acetone result is “insoluble”, the solubility in chloroform entry is on record as “insoluble”, the “solubility in dimethylsulfoxide (DMSO)” value is “soluble” and the solubility in ethanol entry is recorded as “insoluble”. Besides, the solubility in methanol entry under setting [4] was “soluble”. Also, under setting [5], the solubility in ethanol is recorded as ~ 1 mg/ml and the “times less soluble in ethanol than in water” value was “about 3.5 times”.
As usually defined, the bioavailability is dose-corrected exposure relative to a reference, in per cent. For the molecule `CN1CC(=O)N2[C@H](c3ccc4c(c3)OCO4)c3[nH]c4ccccc4c3C[C@@H]2C1=O` [Tadalafil], the water solubility result is reported as “about 2 μg/mL”. In addition, the bioavailability in series [2] was 20.5%. The “average time required to reach the maximum blood concentration (Cmax)” value in series [3] is 2 h.
